From PubChem BioAssay (NCI)
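Interpolation was linear, between the two tested concentrations surrounding the appropriate level; five concentrations were tested over 48 hours in 96-well plates. At the TGI there is no net growth.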

Assays:
Experiment in all cases: inhibition of tumour cell growth, NCI panel, 48 h
786-0 renal = tested on: 786-0 renal
A549 NSCLC = tested on: A549 NSCLC
ACHN renal = tested on: ACHN renal
BT-549 breast = tested on: BT-549 breast
CAKI-1 renal = tested on: CAKI-1 renal
CCRF-CEM leukemia = tested on: CCRF-CEM leukemia
COLO 205 colon = tested on: COLO 205 colon
DU-145 prostate = tested on: DU-145 prostate
EKVX NSCLC = tested on: EKVX NSCLC
HCC-2998 colon = tested on: HCC-2998 colon
HCT-116 colon = tested on: HCT-116 colon
HCT-15 colon = tested on: HCT-15 colon
HOP-62 NSCLC = tested on: HOP-62 NSCLC
HOP-92 NSCLC = tested on: HOP-92 NSCLC
HS 578T breast = tested on: HS 578T breast
HT29 colon = tested on: HT29 colon
IGROV1 ovarian = tested on: IGROV1 ovarian
K-562 leukemia = tested on: K-562 leukemia
KM12 colon = tested on: KM12 colon
M14 melanoma = tested on: M14 melanoma
MCF7 breast = tested on: MCF7 breast
MDA-MB-231 breast = tested on: MDA-MB-231 breast
MDA-MB-435 = tested on: MDA-MB-435
MDA-N = tested on: MDA-N
MOLT-4 leukemia = tested on: MOLT-4 leukemia
NCI-H226 lung = tested on: NCI-H226 lung
NCI-H23 lung = tested on: NCI-H23 lung
NCI-H460 lung = tested on: NCI-H460 lung
NCI-H522 lung = tested on: NCI-H522 lung
NCI/ADR-RES ovarian = tested on: NCI/ADR-RES ovarian
OVCAR-3 ovarian = tested on: OVCAR-3 ovarian
OVCAR-4 ovarian = tested on: OVCAR-4 ovarian
OVCAR-5 ovarian = tested on: OVCAR-5 ovarian
OVCAR-8 ovarian = tested on: OVCAR-8 ovarian
PC-3 prostate = tested on: PC-3 prostate
RPMI-8226 leukemia = tested on: RPMI-8226 leukemia
RXF 393 renal = tested on: RXF 393 renal
SF-268 CNS = tested on: SF-268 CNS
SF-295 CNS = tested on: SF-295 CNS
SF-539 CNS = tested on: SF-539 CNS
SK-MEL-2 melanoma = tested on: SK-MEL-2 melanoma
SK-MEL-28 melanoma = tested on: SK-MEL-28 melanoma
SK-MEL-5 melanoma = tested on: SK-MEL-5 melanoma
SK-OV-3 ovarian = tested on: SK-OV-3 ovarian
SN12C renal = tested on: SN12C renal
SNB-19 CNS = tested on: SNB-19 CNS
SNB-75 CNS = tested on: SNB-75 CNS
SW-620 colon = tested on: SW-620 colon
U251 CNS = tested on: U251 CNS
UACC-257 melanoma = tested on: UACC-257 melanoma
UACC-62 melanoma = tested on: UACC-62 melanoma
UO-31 renal = tested on: UO-31 renal

Molecule FC(F)(F)c1cc(Cl)cnc1N/N=C(/c1ccccc1)c1ccccn1 has a TGI (786-0 renal) of 16.4 µM, a TGI (A549 NSCLC) of 22.9 µM and a TGI (ACHN renal) of 11.8 µM. It also gave a TGI (BT-549 breast) of 36.4 µM, a TGI (CAKI-1 renal) of 22.7 µM and a TGI (CCRF-CEM leukemia) of 4.85 µM. It also gave a TGI (COLO 205 colon) of over 100 µM, a TGI (DU-145 prostate) of over 100 µM and a TGI (EKVX NSCLC) of 4.97 µM. For the same molecule, the TGI (HCC-2998 colon) was over 100 µM, the TGI (HCT-116 colon) was 19.2 µM and the TGI (HCT-15 colon) was over 100 µM. The TGI (HOP-62 NSCLC) was 19.7 µM, the TGI (HOP-92 NSCLC) was 16.3 µM and the TGI (HS 578T breast) was 5.98 µM. It also gave a TGI (HT29 colon) of 20.5 µM, a TGI (IGROV1 ovarian) of 5.59 µM and a TGI (K-562 leukemia) of 49.9 µM. For the same molecule, the TGI (KM12 colon) was 30.1 µM, the TGI (M14 melanoma) was 5.04 µM and the TGI (MCF7 breast) was 17 µM. It also gave a TGI (MDA-MB-231 breast) of 40.2 µM, a TGI (MDA-MB-435) of over 100 µM and a TGI (MDA-N) of over 100 µM. The TGI (MOLT-4 leukemia) was 8.82 µM, the TGI (NCI-H226 lung) was 8.03 µM and the TGI (NCI-H23 lung) was 14.4 µM. For the same molecule, the TGI (NCI-H460 lung) was 15 µM, the TGI (NCI-H522 lung) was 8.31 µM and the TGI (NCI/ADR-RES ovarian) was 6.76 µM. It also gave a TGI (OVCAR-3 ovarian) of 12.7 µM, a TGI (OVCAR-4 ovarian) of 29.4 µM and a TGI (OVCAR-5 ovarian) of 33.4 µM. It also gave a TGI (OVCAR-8 ovarian) of 5.06 µM, a TGI (PC-3 prostate) of 89.7 µM and a TGI (RPMI-8226 leukemia) of over 100 µM. The TGI (RXF 393 renal) was 40.9 µM, the TGI (SF-268 CNS) was 11.3 µM and the TGI (SF-295 CNS) was 5.5 µM. For the same molecule, the TGI (SF-539 CNS) was 12.9 µM, the TGI (SK-MEL-2 melanoma) was 20.1 µM and the TGI (SK-MEL-28 melanoma) was over 100 µM. The TGI (SK-MEL-5 melanoma) was over 100 µM, the TGI (SK-OV-3 ovarian) was 9.9 µM and the TGI (SN12C renal) was over 100 µM. The TGI (SNB-19 CNS) was over 100 µM, the TGI (SNB-75 CNS) was 3.33 µM and the TGI (SW-620 colon) was over 100 µM. The TGI (U251 CNS) was 41.3 µM, the TGI (UACC-257 melanoma) was 16.5 µM and the TGI (UACC-62 melanoma) was 13.2 µM. The TGI (UO-31 renal) was 11.9 µM.
